Target: T1, KMO mouse enzyme (Mus musculus, UniProt Q91WN4)
T1 construct: KMO enzyme prepared at Evotec from mouse liver (4-6 weeks old) via mitochondria isolation; from tissue; host or cells: mouse liver (4-6 weeks old), isolated mitochondria
Assay: KMO enzyme assay monitoring L-Kynurenine hydroxylation to 3OH-KYN by LC/MS (protocols substantially similar to Biology Example 3)
Type: biochemical
Conditions: compound at 30 μM; KMO enzyme from mouse liver mitochondria; 100 μM L-Kynurenine
Experimental: A method of monitoring L-Kynurenine (KYN) hydroxylation to form 3-Hydroxy-Kynurenine (3OH-KYN) by LC/MS is described. Product is quantified by multiple reaction monitoring (MRM method).
• Compound: Stock concentrations: 10 mM in 100% DMSO • Enzyme: KMO enzyme prepared at Evotec from mouse liver (4-6 weeks old) via mitochondria isolation as described in the literature • Substrate: L-Kynurenine (Sigma: Cat #K3750, stock concentration: 10 mM in 100 mM potassium phosphate buffer, pH 7.4) Assay Conditions: • Buffer: 100 mM potassium phosphate, pH 7.4, 200 μM NADPH, 0.4 U/ml G6P-DH (Glucose 6-phosphate Dehydrogenase), 3 mM G6P (D-Glucose 6-phosphate) • Assay Volume: 40 μl • Plate Format: 384 well plate, transparent (Matrix) • Read-Out: product (3OH-KYN) quantification using product specific MRM • Reader: LC/MS/MS Assay Protocol: • prepare serial dilution (factor 3) of compound in 100% DMSO (top concentration=10 mM, 100% DMSO) • [[…]: 10 mM; 3.33 mM; 1.11 mM; 0.37 mM; 0.12 mM; 0.04 mM; 0.0137 mM; 0.0045 mM, […]] • prepare 3.33-fold concentrated solution of each compound concentration (top concentration 300 μM, 3% DMSO) in assay buffer • [concentrations: 300 μM; 100 μM; 33.3 μM; 11.1 μM; 3.70 μM; 1.23 μM; 0.41 μM; 0.137 μM] • prepare substrate (10 mM) at concentration of 1 mM in assay buffer • assay mix: 4 μl compound/well of each concentration+24 μl assay buffer/well+8 μl KMO mouse enzyme+4 μl 1 mM substrate (final concentration=100 μM) • [final compound top concentration: 30 μM; 0.3% DMSO] • [final compound bottom concentration: 0.0137 μM; 0.3% DMSO] • positive control: 4 μl 50 μM FCE28833 in assay buffer, 0.5% DMSO [final assay concentration=5 μM]+24 μl assay buffer/well+8 μl KMO mouse enzyme+4 μl mM substrate [final concentration=100 μM] • negative control: 28 μl assay buffer/well+8 μl KMO mouse enzyme+4 μl 1 mM substrate • [final concentration=100 μM] • incubate 40 min at RT • add 40 μl/well 10% trichloro acetic acid in water to stop the assay and precipitate protein • centrifuge plate for 3 min at 4000 rpm • product detection by LC/MS (injection of 20 μl/well, 2 fold overfill of the 10 μl sample loop) Data Analysis:
IC50's are calculated using automated fitting algorithm (A+ Analysis).
Using the assay protocols substantially similar to those of Biology Example 3, the following compounds were tested.

T1 sequence (Q91WN4 whole entry): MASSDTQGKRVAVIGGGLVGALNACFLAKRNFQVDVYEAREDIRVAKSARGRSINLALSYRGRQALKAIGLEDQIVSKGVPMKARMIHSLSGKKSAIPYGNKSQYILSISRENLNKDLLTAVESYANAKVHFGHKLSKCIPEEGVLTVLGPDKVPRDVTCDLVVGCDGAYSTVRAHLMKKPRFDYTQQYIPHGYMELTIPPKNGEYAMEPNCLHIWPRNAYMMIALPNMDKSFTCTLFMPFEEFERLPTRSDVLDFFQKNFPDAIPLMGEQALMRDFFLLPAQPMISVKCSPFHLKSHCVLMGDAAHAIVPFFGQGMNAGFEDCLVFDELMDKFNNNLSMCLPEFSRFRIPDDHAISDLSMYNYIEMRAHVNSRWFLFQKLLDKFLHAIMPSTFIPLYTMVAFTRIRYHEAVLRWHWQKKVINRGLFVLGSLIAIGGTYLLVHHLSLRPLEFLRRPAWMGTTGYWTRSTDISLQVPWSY

Row | inhibition at 30 µM [%] | Compound
1 | 100 | O=C(O)[C@H]1C[C@@H]1C(=O)c1cc(Cl)c2c(c1)CCO2 [Example 1, Method 1, (1S, 2S)-2-(7-chloro-2,3-dihydro-1-benzofuran-5-carbonyl)cyclopropane-1-carboxylic acid]
2 | 100 | O=C(O)[C@H]1C[C@@H]1C(=O)c1cc(Cl)c2c(c1)CCCO2 [Example 1, Method 2, (1S, 2S)-2-(8-Chloro-3,4-dihydro-2H-1-benzopyran-6-carbonyl)cyclopropane-1-carboxylic acid]
3 | 93.5 | Cn1c(=O)oc2cc(C(=O)[C@H]3C[C@@H]3C(=O)O)cc(Cl)c21 [Example 1, Method 3, (1S,2S)-2-(4-Chloro-3-methyl-2-oxo-2,3-dihydro-1,3-benzoxazole-6-carbonyl)cyclopropane-1-carboxylic acid]
4 | 102 | O=C(O)[C@H]1C[C@@H]1C(=O)c1ccc2c(c1)OCCO2 [Example 1, Method 4, (1S,2S)-2-(2,3-Dihydro-1,4-benzodioxine-6-carbonyl)cyclopropane-1-carboxylic acid]
5 | 103 | CC1Cc2cc(C(=O)[C@H]3C[C@@H]3C(=O)O)ccc2O1 (stereo partly drawn) [Example 1, Method 5, (1S,2S)-2-(2-methyl-2,3-dihydro-1-benzofuran-5-carbonyl)cyclopropane-1-carboxylic acid]
6 | 100 | CC1Cc2cc(C(=O)[C@H]3C[C@@H]3C(=O)O)cc(Cl)c2O1 (stereo partly drawn) [Example 1, Method 6, (1S,2S)-2-(7-chloro-2-methyl-2,3-dihydro-1-benzofuran-5-carbonyl)-cyclo-propane-1-carboxylic acid]
7 | 101 | CC1COc2c(Cl)cc(C(=O)[C@H]3C[C@@H]3C(=O)O)cc2C1 (stereo partly drawn) [Example 1, Method 7, (1S,2S)-2-(8-Chloro-3-methyl-3,4-dihydro-2H-1-benzopyran-6-carbonyl)cyclo-propane-1-carboxylic acid]
8 | 102 | O=C(O)[C@H]1C[C@@H]1C(=O)c1cc(Cl)c2c(c1)OCCO2 [Example 1, Method 8, (1S,2S)-2-(8-Chloro-2,3-dihydro-1,4-benzodioxine-6-carbonyl)cyclopropane-1-carboxylic acid]
9 | 102 | O=C(O)[C@H]1C[C@@H]1C(=O)c1cc(Cl)c2c(c1)OCO2 [Example 1, Method 9, (1S,2S)-2-(7-Chloro-2H-1,3-benzodioxole-5-carbonyl)cyclopropane-1-carboxylic acid]
10 | 102 | CC1Oc2cc(C(=O)[C@H]3C[C@@H]3C(=O)O)cc(Cl)c2O1 (stereo partly drawn) [Example 1, Method 10, (1S,2S)-2-(7-Chloro-2-methyl-2H-1,3-benzodioxole-5-carbonyl)cyclopropane-1-carboxylic acid]
11 | 98.7 | O=C(O)[C@H]1C[C@@H]1C(=O)c1ccc2c(c1)CCO2 [Example 2, Method 1, (1S,2S)-2-(2,3-dihydro-1-benzofuran-5-carbonyl)cyclopropane-1-carboxylic acid]
12 | 101 | Cn1c(=O)oc2c(Cl)cc(C(=O)[C@H]3C[C@@H]3C(=O)O)cc21 [Example 2, Method 3, (1S,2S)-2-(7-Chloro-3-methyl-2-oxo-2,3-dihydro-1,3-benzoxazole-5-carbonyl)cyclopropane-1-carboxylic acid]
13 | 101 | O=C(O)[C@H]1C[C@@H]1C(=O)c1ccc2c(c1)CCCO2 [Example 2, Method 4, (1S,2S)-2-(3,4-dihydro-2H-1-benzopyran-6-carbonyl)cyclopropane-1-carboxylic acid]
14 | 64.8 | CC1(C)Cc2cc(C(=O)[C@H]3C[C@@H]3C(=O)O)ccc2O1 [Example 2, Method 5, (1S,2S)-2-(2,2-Dimethyl-2,3-dihydro-1-benzofuran-5-carbonyl)cyclopropane-1-carboxylic acid]
15 | 101 | O=C(O)[C@H]1C[C@@H]1C(=O)c1ccc2c(c1)SCCO2 [Example 3, Method 5, (1S,2S)-2-(2,3-dihydro-1,4-benzoxathiine-6-carbonyl)cyclopropane-1-carboxylic acid]
16 | 94.1 | O=C(O)[C@H]1C[C@@H]1C(=O)c1ccc2c(c1)OCO2 [Example 4, Method 5, (1S,2S)-2-(2H-1,3-benzodioxole-5-carbonyl)cyclopropane-1-carboxylic acid]

— patent US10501433B2, “Kynurenine-3-monooxygenase inhibitors, pharmaceutical compositions, and methods of use thereof” (CHDI Foundation, Inc., priority 2013, dated 2019)
